Reference: the NIST ThermoML archive (doi:10.1021/je800463k)

Assay: mn = molality of the nth substance listed, in mol/kg
Conditions: 101 kPa, Liquid; for viscosity: 313.15 K; for mass density: Pycnometric method; for speed of sound: Frequency=2 MHz

O=[N+]([O-])[O-].O=[N+]([O-])[O-].[Mg+2] [magnesium nitrate] + CO
Conditions | viscosity [mPa·s]
m1 = 1.004 | 1.124
m1 = 1.259 | 1.536
m1 = 1.492 | 1.837
m1 = 1.71 | 2.169
m1 = 1.875 | 2.45

Conditions | mass density [kg/m3] | speed of sound [m/s]
313.3 K, m1 = 0.0667 | 780.84 | –
313.65 K, m1 = 1.004 | 873.36 | –
313.7 K, m1 = 1.875 | 951.61 | –
313.85 K, m1 = 0.4024 | 815.07 | –
313.95 K, m1 = 0.0545 | 778.79 | –
314 K, m1 = 0.0082 | 771.07 | –
314.25 K, m1 = 1.492 | 922.37 | –
314.4 K, m1 = 0.1047 | 784.98 | –
314.6 K, m1 = 1.71 | 940.19 | –
314.7 K, m1 = 0.881 | 858.85 | –
314.8 K, m1 = 0.4555 | 818.87 | –
314.85 K, m1 = 1.259 | 899.51 | –
314.9 K, m1 = 0.6276 | 836.88 | –
315.1 K, m1 = 0.2776 | 801.88 | –
315.45 K, m1 = 0.4024 | 813.41 | –
315.65 K, m1 = 0.0667 | 778.45 | –
315.65 K, m1 = 0.782 | 855.81 | –
315.8 K, m1 = 1.875 | 949.71 | –
315.95 K, m1 = 0.1047 | 783.38 | –
316.35 K, m1 = 0.0545 | 776.41 | –
316.5 K, m1 = 0.4555 | 817.2 | –
316.6 K, m1 = 0.881 | 857.07 | –
316.6 K, m1 = 1.004 | 870.6 | –
316.65 K, m1 = 0.6276 | 835.18 | –
316.75 K, m1 = 1.259 | 897.65 | –
317.35 K, m1 = 0.2776 | 799.43 | –
317.35 K, m1 = 1.492 | 919.48 | –
317.5 K, m1 = 0.782 | 854.04 | –
317.8 K, m1 = 1.875 | 947.68 | –
317.85 K, m1 = 1.71 | 937.24 | –
318.15 K, m1 = 0.0082 | – | 1044.1
318.15 K, m1 = 0.0545 | – | 1045.1
318.15 K, m1 = 0.0667 | – | 1051.1
318.15 K, m1 = 0.1047 | – | 1056.1
318.15 K, m1 = 0.2776 | – | 1074.8
318.15 K, m1 = 0.4024 | – | 1083.3
318.15 K, m1 = 0.4555 | – | 1089.9
318.15 K, m1 = 0.6276 | – | 1108
318.15 K, m1 = 0.782 | – | 1124.4
318.15 K, m1 = 0.881 | – | 1131.9
318.15 K, m1 = 0.9116 | – | 1134
318.15 K, m1 = 1.004 | – | 1148.2
318.15 K, m1 = 1.259 | – | 1167.6
318.15 K, m1 = 1.492 | – | 1193.9
318.15 K, m1 = 1.71 | – | 1216.4
318.15 K, m1 = 1.875 | – | 1225.2
319.3 K, m1 = 0.881 | 854.45 | –
319.45 K, m1 = 1.004 | 867.87 | –
319.55 K, m1 = 1.259 | 894.9 | –
320.2 K, m1 = 1.492 | 916.67 | –
320.25 K, m1 = 0.782 | 851.43 | –
320.75 K, m1 = 1.875 | 944.75 | –
320.9 K, m1 = 1.71 | 934.37 | –
323.15 K, m1 = 0.0082 | – | 1027.3
323.15 K, m1 = 0.0545 | – | 1033.4
323.15 K, m1 = 0.0667 | – | 1035.4
323.15 K, m1 = 0.1047 | – | 1039.7
323.15 K, m1 = 0.2776 | – | 1058.3
323.15 K, m1 = 0.4024 | – | 1067.5
323.15 K, m1 = 0.4555 | – | 1076.2
323.15 K, m1 = 0.6276 | – | 1093.5
323.15 K, m1 = 0.782 | – | 1108.6
323.15 K, m1 = 0.881 | – | 1115.5
323.15 K, m1 = 0.9116 | – | 1119.3
323.15 K, m1 = 1.004 | – | 1133.8
323.15 K, m1 = 1.259 | – | 1151.8
323.15 K, m1 = 1.492 | – | 1177.5
323.15 K, m1 = 1.71 | – | 1199
323.15 K, m1 = 1.875 | – | 1209.5
